# Reference: patent publication US20240226115A1, “AXL INHIBITOR COMPOUNDS” (ARCUS BIOSCIENCES, INC., priority 2021, published 2024)
# Columns and labels:
# recombinant human TYRO3 = molecular target: T1, recombinant human TYRO3 (Homo sapiens, UniProt Q06418); test: HTRF KinEASE-TK biochemical potency, TYRO3; conditions: 1 nM TYRO3, 700 μM ATP
# T1 construct: purchased Invitrogen
# T1 sequence (Q06418 41-890): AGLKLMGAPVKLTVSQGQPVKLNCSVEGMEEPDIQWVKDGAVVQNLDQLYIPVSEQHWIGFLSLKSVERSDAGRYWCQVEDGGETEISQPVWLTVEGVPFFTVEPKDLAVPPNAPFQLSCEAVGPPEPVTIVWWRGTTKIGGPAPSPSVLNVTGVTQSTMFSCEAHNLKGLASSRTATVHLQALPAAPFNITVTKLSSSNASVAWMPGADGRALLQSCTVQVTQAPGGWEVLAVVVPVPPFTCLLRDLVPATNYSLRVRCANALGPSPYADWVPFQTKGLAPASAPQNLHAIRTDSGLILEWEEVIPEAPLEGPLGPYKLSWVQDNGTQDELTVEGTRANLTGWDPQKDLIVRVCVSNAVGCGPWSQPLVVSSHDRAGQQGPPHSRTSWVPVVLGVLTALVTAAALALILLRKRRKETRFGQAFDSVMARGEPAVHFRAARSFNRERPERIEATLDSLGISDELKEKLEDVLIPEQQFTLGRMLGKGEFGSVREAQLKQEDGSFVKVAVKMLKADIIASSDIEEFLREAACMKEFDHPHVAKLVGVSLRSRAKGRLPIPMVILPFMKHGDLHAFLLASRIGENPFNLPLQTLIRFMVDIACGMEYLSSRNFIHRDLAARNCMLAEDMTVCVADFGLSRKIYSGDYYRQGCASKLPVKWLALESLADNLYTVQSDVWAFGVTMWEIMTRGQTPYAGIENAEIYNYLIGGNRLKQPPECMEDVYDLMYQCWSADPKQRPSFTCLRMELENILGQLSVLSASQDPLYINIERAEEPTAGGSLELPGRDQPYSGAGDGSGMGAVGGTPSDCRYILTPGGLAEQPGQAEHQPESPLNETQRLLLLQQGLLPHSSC
# How it was run: (§1)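 Enzyme preincubated with compound 1 h at RT; final 5 nM AXL or 1 nM TYRO3/MER, 800 nM TK substrate-biotin, 700 μM ATP, HEPES pH 7.4, MgCl2, 1% DMSO, 2 h at RT. HTRF 665/620 ratio read after streptavidin-XL665/cryptate antibody detection; percent activity relative to DMSO and pre-stopped controls.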
# Axl = molecular target: T2, Axl (Homo sapiens, UniProt P30530); test: HTRF KinEASE-TK biochemical potency, AXL; parameters: purchased Invitrogen; conditions: 5 nM AXL, 700 μM ATP
# T2 sequence (P30530 26-894): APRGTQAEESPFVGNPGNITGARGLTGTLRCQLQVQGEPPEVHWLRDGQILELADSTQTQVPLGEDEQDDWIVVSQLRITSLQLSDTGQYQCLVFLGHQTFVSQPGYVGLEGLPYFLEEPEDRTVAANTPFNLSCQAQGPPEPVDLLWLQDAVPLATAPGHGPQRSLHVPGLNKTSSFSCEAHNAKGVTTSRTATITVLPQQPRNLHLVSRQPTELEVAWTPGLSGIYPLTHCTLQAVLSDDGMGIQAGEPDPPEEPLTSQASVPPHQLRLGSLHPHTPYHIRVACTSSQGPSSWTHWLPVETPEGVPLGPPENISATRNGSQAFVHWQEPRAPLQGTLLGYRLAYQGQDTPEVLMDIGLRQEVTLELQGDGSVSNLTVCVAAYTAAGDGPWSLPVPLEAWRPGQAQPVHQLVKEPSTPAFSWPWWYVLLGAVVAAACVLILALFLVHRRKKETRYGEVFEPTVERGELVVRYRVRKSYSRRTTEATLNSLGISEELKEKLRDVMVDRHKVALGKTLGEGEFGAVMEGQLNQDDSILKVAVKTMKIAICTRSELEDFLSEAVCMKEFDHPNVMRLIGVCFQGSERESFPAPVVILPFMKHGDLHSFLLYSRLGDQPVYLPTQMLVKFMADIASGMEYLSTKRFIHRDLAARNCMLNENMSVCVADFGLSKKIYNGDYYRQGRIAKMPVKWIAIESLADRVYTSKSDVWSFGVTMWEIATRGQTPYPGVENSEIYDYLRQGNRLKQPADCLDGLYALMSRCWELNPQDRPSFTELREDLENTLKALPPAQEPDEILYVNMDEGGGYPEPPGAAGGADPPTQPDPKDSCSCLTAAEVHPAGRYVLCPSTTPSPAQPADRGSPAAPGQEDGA
# How it was run: as §1
Structure (SMILES),IC50 (recombinant human TYRO3),IC50 (Axl)
"C[C@H]1CCCN1C1(C)CCc2ccc(-c3cnc4[nH]nc(-c5ccc6c(c5)OCCNC6=O)c4c3)cc2CC1 (stereo partly drawn) [Example 24, 8-(5-{7-Methyl-7-[(2S)-2-methylpyrrolidin-1-yl]-6,7,8,9-tetrahydro-5H-benzo[7]annulen-2-yl}-1H-pyrazolo[3,4-b]pyridin-3-yl)-2,3,4,5-tetrahydro-1,4-benzoxazepin-5-one]",< 100 nM,< 100 nM
"CC1(C)COc2cc(-c3n[nH]c4ncc(-c5ccc6c(c5)CCC(N5CCCC5)CC6)cc34)ccc2C(=O)N1 (stereo not drawn) [Example 35, 3,3-Dimethyl-8-{5-[7-(pyrrolidin-1-yl)-6,7,8,9-tetrahydro-5H-benzo[7]annulen-2-yl]-1H-pyrazolo[3,4-b]pyridin-3-yl}-2,3,4,5-tetrahydro-1,4-benzoxazepin-5-one]",< 100 nM,< 100 nM
"C[C@@H]1CNC(=O)c2ccc(-c3n[nH]c4ncc(-c5ccc6c(c5)CCC(N5CCC[C@H]5C)CC6)cc34)cc2O1 (stereo partly drawn) [Example 59, (2R)-2-Methyl-8-(5-{7-[(2R)-2-methylpyrrolidin-1-yl]-6,7,8,9-tetrahydro-5H-benzo[7]annulen-2-yl}-1H-pyrazolo[3,4-b]pyridin-3-yl)-2,3,4,5-tetrahydro-1,4-benzoxazepin-5-one]",< 100 nM,< 100 nM
"CC1(O)CCCOc2cc(-c3n[nH]c4ncc(-c5ccc6c(c5)CCN(C5CCCC5)CC6)cc34)ccc21 (stereo not drawn) [Example 28, (8-[5-(3-Cyclopentyl-2,3,4,5-tetrahydro-1H-3-benzazepin-7-yl)-1H-pyrazolo[3,4-b]pyridin-3-yl]-5-methyl-2,3,4,5-tetrahydro-1-benzoxepin-5-ol)]",100 to 1000 nM,< 100 nM
"O=C1NCCOc2cc(-c3n[nH]c4ncc(-c5ccc6c(c5)CCN(C(=O)C5CC5)CC6)cc34)ccc21 [Example 17, 8-[5-(3-Cyclopropanecarbonyl-2,3,4,5-tetrahydro-1H-3-benzazepin-7-yl)-1H-pyrazolo[3,4-b]pyridin-3-yl]-2,3,4,5-tetrahydro-1,4-benzoxazepin-5-one]",< 100 nM,< 100 nM
"C[C@@H]1CCCN1C1CCc2ccc(-c3cnc4[nH]nc(-c5ccc6c(c5F)OCCNC6=O)c4c3)cc2CC1 (stereo partly drawn) [Example 60, 9-Fluoro-8-(5-{7-[(2R)-2-methylpyrrolidin-1-yl]-6,7,8,9-tetrahydro-5H-benzo[7]annulen-2-yl}-1H-pyrazolo[3,4-b]pyridin-3-yl)-2,3,4,5-tetrahydro-1,4-benzoxazepin-5-one]",< 100 nM,< 100 nM
"O=C1NCCOc2cc(-c3n[nH]c4ncc(-c5ccc6c(c5)CCN(C5CC5)C6)cc34)ccc21 [Example 21, 8-(5-(2-Cyclopropyl-1,2,3,4-tetrahydroisoquinolin-6-yl)-1H-pyrazolo[3,4-b]pyridin-3-yl)-3,4-dihydrobenzo[f][1,4]oxazepin-5(2H)-one]",100 to 1000 nM,< 100 nM
"C[C@@H]1CCCN1C1CCc2cc(F)c(-c3cnc4[nH]nc(-c5ccc6c(c5)OCCNC6=O)c4c3)cc2CC1 (stereo partly drawn) [Example 58, 8-(5-{3-Fluoro-7-[(2R)-2-methylpyrrolidin-1-yl]-6,7,8,9-tetrahydro-5H-benzo[7]annulen-2-yl}-1H-pyrazolo[3,4-b]pyridin-3-yl)-2,3,4,5-tetrahydro-1,4-benzoxazepin-5-one]",< 100 nM,< 100 nM
"CC1(O)CCCCc2cc(-c3n[nH]c4ncc(-c5ccc6c(c5)CCN(C5CCCC5)CC6)cc34)ccc21 (stereo not drawn) [Example 27, 2-[5-(3-Cyclopentyl-2,3,4,5-tetrahydro-1H-3-benzazepin-7-yl)-1H-pyrazolo[3,4-b]pyridin-3-yl]-5-methyl-6,7,8,9-tetrahydro-5H-benzo[7]annulen-5-ol]",100 to 1000 nM,< 100 nM
"CC1(O)CCOc2cc(-c3n[nH]c4ncc(-c5ccc6c(c5)CC[C@@H](N5CCCC5)CC6)cc34)ccc21 (stereo partly drawn) [Example 31, 4-Methyl-7-{5-[(7S)-7-(pyrrolidin-1-yl)-6,7,8,9-tetrahydro-5H-benzo[7]annulen-2-yl]-1H-pyrazolo[3,4-b]pyridin-3-yl}-3,4-dihydro-2H-1-benzopyran-4-ol]",< 100 nM,< 100 nM
"O=C1NCCOc2cc(-c3n[nH]c4ncc(-c5ccc6c(c5)CCN(C5COC5)C6)cc34)ccc21 [Example 12, 8-(5-(2-(Oxetan-3-yl)-1,2,3,4-tetrahydroisoquinolin-6-yl)-1H-pyrazolo[3,4-b]pyridin-3-yl)-3,4-dihydrobenzo[f][1,4]oxazepin-5(2H)-one]",< 100 nM,< 100 nM
"O=C1NCCOc2cc(-c3n[nH]c4ncc(-c5ccc6c(c5)CCC(N[C@@H]5CCOC5)CC6)cc34)ccc21 (stereo partly drawn) [Example 46, 8-[5-(7-{[(3R)—Oxolan-3-yl]amino}-6,7,8,9-tetrahydro-5H-benzo[7]annulen-2-yl)-1H-pyrazolo[3,4-b]pyridin-3-yl]-2,3,4,5-tetrahydro-1,4-benzoxazepin-5-one]",< 100 nM,< 100 nM
"O=C1NCCOc2cc(-c3n[nH]c4ncc(-c5ccc6c(c5)CCC(N[C@H]5CCOC5)C6)cc34)ccc21 (stereo partly drawn) [Example 4, 8-[5-(6-{[(3S)—Oxolan-3-yl]amino}-5,6,7,8-tetrahydronaphthalen-2-yl)-1H-pyrazolo[3,4-b]pyridin-3-yl]-2,3,4,5-tetrahydro-1,4-benzoxazepin-5-one]",< 100 nM,< 100 nM
"O=C1NCCOc2cc(-c3n[nH]c4ncc(-c5ccc6c(c5)CCN(C5CC5)CC6)cc34)ccc21 [Example 20, 8-(5-(3-Cyclopropyl-2,3,4,5-tetrahydro-1H-benzo[d]azepin-7-yl)-1H-pyrazolo[3,4-b]pyridin-3-yl)-3,4-dihydrobenzo[f][1,4]oxazepin-5(2H)-one]",< 100 nM,< 100 nM
"O=C1NCCOc2cc(-c3n[nH]c4ncc(-c5ccc6c(c5)CCNCC6)cc34)ccc21 [Example 53, 8-(5-(2,3,4,5-Tetrahydro-1H-benzo[d]azepin-7-yl)-1H-pyrazolo[3,4-b]pyridin-3-yl)-3,4-dihydrobenzo[f][1,4]oxazepin-5(2H)-one]",< 100 nM,< 100 nM
"O=C1NCCOc2cc(-c3n[nH]c4ncc(-c5ccc6c(c5)CC[C@@H](N5CCCC5)CC6)cc34)ccc21 (single isomer, unassigned) [Example 57]",< 100 nM,< 100 nM
"O=C1NCCOc2cc(-c3n[nH]c4ncc(-c5ccc6c(c5)CC(N5CCCC5)CC6)cc34)ccc21 (stereo not drawn) [Example 3, 8-{5-[7-(Pyrrolidin-1-yl)-5,6,7,8-tetrahydronaphthalen-2-yl]-1H-pyrazolo[3,4-b]pyridin-3-yl}-2,3,4,5-tetrahydro-1,4-benzoxazepin-5-one]",< 100 nM,< 100 nM
"C[C@@H]1CCCN1C1CCc2ccc(-c3cnc4[nH]nc(-c5ccc6c(c5)OCC5(CC5)NC6=O)c4c3)cc2CC1 (stereo partly drawn) [Example 36, 8-(5-{7-[(2R)-2-Methylpyrrolidin-1-yl]-6,7,8,9-tetrahydro-5H-benzo[7]annulen-2-yl}-1H-pyrazolo[3,4-b]pyridin-3-yl)-4,5-dihydro-2H-spiro[1,4-benzoxazepine-3,1′-cyclopropan]-5-one]",< 100 nM,< 100 nM
